What was measured:
A549 [1] = test: Cell proliferation assay (trypan blue); assay type: cell-based, human
Procedure: All three cell lines (A549, H1299, and CCD-16) were seeded in 60-mm-diameter tissue culture dishes at a density of 1×10^5 cells/dish in triplicate. […] […] At 72 h after the start of treatment, the cells were harvested by trypsinization, washed, and subjected to typan-blue exclusion assay as previously described (Saeki et al., 2000).

H1299 [2] = test: Cell proliferation assay (trypan blue); assay type: cell-based; conditions: Homo sapiens, NCI-H1299; read-out: IC50 of growth inhibition
Procedure: (§1) All three cell lines (A549, H1299, and CCD-16) were seeded in 60-mm-diameter tissue culture dishes at a density of 1×10^5 cells/dish in triplicate. […] The concentrations of sulindac tested were 0.125, 0.25, and 0.5 mM. At 72 h after the start of treatment, the cells were harvested by trypsinization, washed, and subjected to typan-blue exclusion assay as previously described (Saeki et al., 2000).

CCD-16 [3] = test: Cell proliferation assay (trypan blue); assay type: cell-based, human
Procedure: as §1

A549 [4] = test: Ad-GFP transduction efficiency with sulindac (flow cytometry); assay type: cell-based, human; conditions: Ad-GFP 100 vp/cell, 24 h
Procedure: (§2) To determine the effect of sulindac on adenovirus transduction, tumor and normal cells were infected with Ad-GFP at 100 vp/cell and analyzed for GFP expression at 24 h by FACS.

CCD-16 [5] = test: as above; assay type: cell-based, human; conditions: Ad-GFP 100 vp/cell, 24 h
Procedure: as §2

H1299 [6] = test: as above; assay type: cell-based, human; conditions: Ad-GFP 100 vp/cell, 24 h
Procedure: as §2

A549 [7] = test: Cell cycle distribution by FACS; assay type: cell-based, human; conditions: 72 h
Procedure: (§3) Each treatment group was tested in triplicate. The concentrations of sulindac used were the same as those for the cell-proliferation assay. At 72 h after the start of the treatment, cells were harvested, washed, and analyzed for cell cycle phases and apoptotic fraction as previously described (Saeki et al., 2000). The cell cycle phases and DNA contents were analyzed using FACScan (EPICS XL-MCL; Beckman Coulter, Fullerton, Calif.).

H1299 [8] = test: Cell cycle distribution by FACS; assay type: cell-based, human; conditions: 72 h
Procedure: as §3

[9] = molecular target: T1, proteasome in H1299 cells (Homo sapiens, UniProt P28074); test: Proteasome activity assay and ubiquitinated protein western blot; assay type: cell-based; conditions: vs untreated control cells
T1 construct: endogenous in cells; host or cells: H1299 human lung cancer cells, treated and then lysed; 20 µg total lysate protein per reaction
Procedure: Proteasome activity assays were performed as previously described (Choi et al., 2003). […] The sulindac concentrations tested were the same as those in the other assays. At 24 h after the start of treatment, the cells were lysed in proteasome buffer (10 mM Tris-HCl, pH 7.5, 1 mM EDTA, 20% glycerol, 5 mM ATP, and 4 mM DTT), sonicated, and then centrifuged at 1300×g at 4° C. for 10 min. The upper supernatant phase was collected, and the protein concentration of cell lysates was determined as previously described (Saeki et al., 2000).
To assay the chymotrypsin-like activity of the proteasome, the fluorogenic substrate Suc-LLVY-AMC (Chemicon International, Inc., Temecula, Calif.) was used. Twenty micrograms of total protein from each treatment group described above was diluted to 100 μl in reaction buffer (25 mM HEPES, pH 7.5, 0.5 mM EDTA, 0.05% NP-40, and 0.001% SDS). […] The intensity of fluorescence in each sample solution was measured using a fluorescence plate reader (Dynatech Laboratories, Chantily, Va.) at 360-nm excitatory and 460-nm emission wavelengths. All readings were standardized using the fluorescence intensity of an equal volume of free 7-Amino-4-methylcoumarin (AMC) solution (50 μM). The values were expressed as percentages for control greater than the internal positive control percentages provided by the supplier.

NF-κB = NF-κB activation by EMSA; assay type: cell-based, human; conditions: H1299 and A549
[10] = system: H1299 lung tumor xenografts; test: H1299 subcutaneous xenograft, Ad-mda7 with sulindac; conditions: vector 3×10^9 vp intratumoral thrice a week; sulindac 40 mg/kg i.p. daily
Procedure: In mice receiving sulindac, 40 mg/kg was administered i.p. every day. Animals were weighed once a week to determine the body weight. Tumor growth was monitored and measured three times a week as described previously (Saeki et al., 2002; Ramesh et al., 2003). At 22-25 days after initiation of the treatment all animals were killed via CO2 inhalation, and the tumors were removed for histopathologic examination and western blot analysis. Experiments were performed two separate times for reproducibility and statistical significance.

T1 sequence (P28074 60-263): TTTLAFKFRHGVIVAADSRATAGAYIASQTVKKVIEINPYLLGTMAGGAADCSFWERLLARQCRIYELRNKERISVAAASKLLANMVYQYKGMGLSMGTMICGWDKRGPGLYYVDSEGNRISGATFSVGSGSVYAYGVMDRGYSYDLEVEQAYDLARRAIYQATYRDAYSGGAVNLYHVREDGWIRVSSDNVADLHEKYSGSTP

In the case of `CC1=C(CC(=O)O)c2cc(F)ccc2/C1=C\c1ccc([S+](C)[O-])cc1` (centres unmarked) [Sulindac], the IC50 (A549 [1]; Homo sapiens, A549, read-out: IC50 of growth inhibition) is reported as 580 µM, the “inhibitory effect on cell proliferation” value (A549 [1]; tumor cells, 1 and 2 mM) is reported as over 90% and the IC50 (H1299 [2]) is reported as 610 µM. For the same molecule, the IC50 (CCD-16 [3]; Homo sapiens, read-out: IC50 of growth inhibition) was 940 µM, the “inhibitory effect on cell proliferation” value (CCD-16 [3]; normal cells, 1 and 2 mM) was 60% and the transduction efficiency (A549 [4]; sulindac 0.125 mM) was 52.4 ± 0.6%. The transduction efficiency (A549 [4]; sulindac 0.25 mM) was 51.5 ± 1.3%, the transduction efficiency (A549 [4]; sulindac 0.5 mM) was 65.0 ± 1.5 + a % and the transduction efficiency (CCD-16 [5]; sulindac 0.125 mM) was 12.1 ± 0.4%. For the same molecule, the transduction efficiency (CCD-16 [5]; sulindac 0.25 mM) was 11.1 ± 1.0%, the transduction efficiency (CCD-16 [5]; sulindac 0.5 mM) was 13.7 ± 0.4% and the transduction efficiency (H1299 [6]; sulindac 0.125 mM) was 80.0 ± 0.5%. For the same molecule, the transduction efficiency (H1299 [6]; sulindac 0.25 mM) was 78.6 ± 1.2%, the transduction efficiency (H1299 [6]; sulindac 0.5 mM) was 82.7 ± 2.8% and the “cells in G1” value (A549 [7]; sulindac 0.125 mM) was 64.8%. For the same molecule, the “cells in G2/M” value (A549 [7]; sulindac 0.125 mM) was 6.4%, the “cells in S” value (A549 [7]; sulindac 0.125 mM) was 28.9% and the “cells in G1” value (A549 [7]; sulindac 0.5 mM) was 75.6%. For the same molecule, the “cells in G2/M” value (A549 [7]; sulindac 0.5 mM) was 6.0%, the “cells in S” value (A549 [7]; sulindac 0.5 mM) was 18.5% and the “cells in G1” value (H1299 [8]; sulindac 0.125 mM) was 66.4%. For the same molecule, the “cells in G2/M” value (H1299 [8]; sulindac 0.125 mM) was 11.4%, the “cells in S” value (H1299 [8]; sulindac 0.125 mM) was 22.3% and the “cells in G1” value (H1299 [8]; sulindac 0.5 mM) was 74.6%. For the same molecule, the “cells in G2/M” value (H1299 [8]; sulindac 0.5 mM) was 12.7%, the “cells in S” value (H1299 [8]; sulindac 0.5 mM) was 13.0% and the proteasome activity [9] was “does not inhibit”. For the same molecule, the NF-κB activation (NF-κB) was “inhibit NF-κB activation” and the tumor growth [10] was “No significant growth inhibition”.

Reference: patent publication US20060134801A1, “Methods and compositions involving MDA-7” (Board of Regents, The University of Texas System, priority 2003, published 2006)
